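Cultured in 96-well plates, cells were exposed to test compound for 48 hours across five concentrations. The concentration for full growth arrest is given as TGI.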
Tests used:
Experiment in all cases: NCI anticancer screen, dose series, 48 h
[1] = system: TK-10 renal
[2] = system: HL-60(TB) leukemia
[3] = system: CCRF-CEM leukemia
[4] = system: SR leukemia
[5] = system: EKVX NSCLC
[6] = system: HCT-15 colon
[7] = system: SK-OV-3 ovarian
[8] = system: NCI-H460 lung
[9] = system: SW-620 colon
[10] = system: M14 melanoma
[11] = system: HCC-2998 colon
[12] = system: SNB-19 CNS
[13] = system: IGROV1 ovarian
[14] = system: A549 NSCLC
[15] = system: SF-295 CNS
[16] = system: U251 CNS
[17] = system: MCF7 breast
[18] = system: NCI-H522 lung
[19] = system: SK-MEL-2 melanoma
[20] = system: A498 renal

Row | SMILES | TGI [1] | TGI [2] | TGI [3] | TGI [4] | TGI [5] | TGI [6] | TGI [7] | TGI [8] | TGI [9] | TGI [10] | TGI [11] | TGI [12] | TGI [13] | TGI [14] | TGI [15] | TGI [16] | TGI [17] | TGI [18] | TGI [19] | TGI [20]
1 | CCO[C@]12C[C@H](OC)[C@@]3(O)CC(C1[C@H]3O)C13C4C2[C@H](OC)C1[C@](COC)(CN4CC)[C@H](O)C[C@@H]3OC (stereo not given in full) | > 100 µM | > 100 µM | > 100 µM | > 100 µM | > 100 µM | > 100 µM | > 100 µM | > 100 µM | > 100 µM | > 100 µM | > 100 µM | > 100 µM | > 100 µM | > 100 µM |  |  |  |  |  | 
2 | COc1ccc(N2C(=O)C3c4[nH]c5cccc(C)c5c4C4CCC(C(C)(C)C)CC4C3C2=O)cc1 (stereo not given) | > 10 µM | > 10 µM |  | > 10 µM | > 10 µM | > 10 µM | > 10 µM | > 10 µM | > 10 µM | > 10 µM | > 10 µM | > 10 µM | > 10 µM | > 10 µM | > 10 µM | > 10 µM | > 10 µM | > 10 µM | > 10 µM | > 10 µM
3 | CC(C)(C)C(=O)C(C(c1ccccc1)N1CCOCC1)N1CCOCC1 (stereo not given) | > 100 µM |  | > 100 µM | > 100 µM | > 100 µM | > 100 µM |  | > 100 µM | > 100 µM | > 100 µM | > 100 µM | > 100 µM | > 100 µM | > 100 µM | > 100 µM | > 100 µM |  | > 100 µM | > 100 µM | > 100 µM
4 | CC(C)[C@](O)(C(=O)OCC1CC[N+]2([O-])CC[C@@H](O)C12)[C@H](C)O (stereo not given in full) |  | > 375 µM | > 375 µM |  | > 375 µM | > 375 µM | > 375 µM | > 159 µM | > 375 µM |  | > 375 µM | > 375 µM | > 375 µM | > 375 µM | > 375 µM | > 375 µM | > 375 µM | > 375 µM | > 317 µM | > 59.4 µM
5 | OCCN(CCO)c1ccc2c(c1)Cc1ccccc1-2 | 55 µM | > 100 µM | > 100 µM | > 100 µM | > 100 µM | > 100 µM | > 100 µM | 50 µM | > 100 µM | > 100 µM | > 100 µM | > 100 µM |  | > 100 µM | > 100 µM | > 100 µM | 60.5 µM |  | 63.2 µM | 80.5 µM
6 | CCCCCCCCCCCCCCCCOCC(COP(=O)([O-])OCC[N+](C)(C)C)OCCCCCCCCCCCCCCCC (stereo not given) |  | > 100 µM | > 100 µM |  | > 100 µM | > 100 µM | > 100 µM | > 100 µM | > 100 µM |  | > 100 µM | > 100 µM | > 100 µM |  | > 100 µM | > 100 µM |  | > 100 µM | > 100 µM | > 100 µM
7 | CCCCN1C(=O)NC(Cc2ccccc2)C1=O (stereo not given) | > 100 µM |  |  | > 100 µM | > 100 µM |  |  | > 100 µM | > 100 µM | > 100 µM | > 100 µM | > 100 µM |  | > 100 µM | > 100 µM | > 100 µM |  | > 100 µM | > 100 µM | 
8 | CC(=O)Oc1ccccc1C(=O)O | > 100 µM | > 100 µM | > 100 µM | > 100 µM | > 100 µM | > 100 µM | > 100 µM |  | > 100 µM | > 100 µM |  | > 100 µM |  | > 100 µM | > 100 µM | > 100 µM | > 100 µM | > 100 µM | > 100 µM | 
9 | O=[n+]1c2ccccc2n([O-])c2cc(Br)ccc21 | 72.9 µM | 7.56 µM | > 100 µM | 5.21 µM | 49.9 µM | 32 µM |  | > 100 µM | 75.7 µM | > 100 µM | 39.9 µM | > 100 µM | 18.8 µM | 39.4 µM | 46.4 µM | 78.8 µM | 53 µM | 30.2 µM | 56.8 µM | 40.2 µM
10 | Cc1ccc(-c2csc(=Nc3c(C)n(C)n(-c4ccccc4)c3=O)n2CCO)cc1 | > 100 µM | > 100 µM | > 100 µM | > 100 µM | > 100 µM | > 100 µM | > 100 µM | > 100 µM |  | > 100 µM | > 100 µM | > 100 µM |  | > 100 µM | > 100 µM | > 100 µM | > 100 µM |  | > 100 µM | > 100 µM

From PubChem BioAssay (NCI)
